Experiments:
[1] = target: T1, mouse Clec10a (Mus musculus, UniProt P49300); assay: Mouse Clec10a-CD3ζ NFAT-GFP reporter cell assay; type: cell-based; details: stimulation with coated plates, 18 hours, flow cytometry
T1 construct: an extracellular and transmembrane portions of Clec10a fused to a cytoplasmic portion of CD3; expressed in transfected cells; host or cells: 2B4-NFAT-GFP reporter cells, pMXs-puro retroviral vector
T1 sequence (P49300 57-304 limits assumed): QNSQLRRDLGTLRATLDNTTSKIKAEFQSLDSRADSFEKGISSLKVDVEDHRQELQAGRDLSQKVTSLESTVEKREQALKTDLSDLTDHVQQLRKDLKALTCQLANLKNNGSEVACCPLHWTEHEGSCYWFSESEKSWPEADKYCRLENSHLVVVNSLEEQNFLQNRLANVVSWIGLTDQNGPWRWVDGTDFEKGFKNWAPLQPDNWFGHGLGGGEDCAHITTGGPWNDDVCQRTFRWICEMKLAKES
Experimental: The intracellular region of human CD3ζ was obtained from a vector provided by LL Lanier (University of California, San Francisco). The extracellular region of mouse or human Clec10a or the extracellular region of human Asgr1 was subcloned into a pMXs-puro retroviral vector. 2B4-NFAT-GFP reporter cells were provided from H. Arase (University of Osaka). 2B4-NFAT-GFP reporter cells stably expressing mouse or human Clec10a were made as described previously. The reporter cells were incubated for 18 hours in the presence or absence of anti-Clec10a mAb, Lewis X (GlycoTech), Lewes Y (GlycoTech), galactose (Sigma-Aldrich), glucose (Sigma-Aldrich) or mannose (Sigma-Aldrich). The reporter cells were also cultured on a galactosidase (R & D Systems, 5704 GH or 5549 GH) or glucosidase (R & D Systems, 8329-GH), or Clec10 ligand-coated plate, or an HDM extract-coated plate treated with size-fractionated Clec10a ligand or untreated. Activation of NFAT-GFP was monitored by flow cytometry.
To test whether Clec10a recognized glycosylated proteins contained in HDM, NFAT-GFP reporter cells (Clec10a reporter cells) were made which expressed chimeric fusion proteins inch ling an extracellular and transmembrane portions of Clec10a fused to a cytoplasmic portion of CD3.

[2] = target: T2, Clec10a-Fc (Mus musculus, UniProt P49300); assay: Sugar conjugate (glycan) microarray analysis of Clec10a-Fc (Table 7); type: binding; details: for Signal value, Clec10a-Fc: glycan microarray probed with Clec10a-Fc; for Signal value, Clec10a-Fc with EDTA: glycan microarray probed with Clec10a-Fc with EDTA
T2 construct: cloning the extracellular region of mouse Clec10a into a pME18S expression vector; made in house; host or cells: HEK293T cells
T2 sequence (P49300 57-304 limits assumed): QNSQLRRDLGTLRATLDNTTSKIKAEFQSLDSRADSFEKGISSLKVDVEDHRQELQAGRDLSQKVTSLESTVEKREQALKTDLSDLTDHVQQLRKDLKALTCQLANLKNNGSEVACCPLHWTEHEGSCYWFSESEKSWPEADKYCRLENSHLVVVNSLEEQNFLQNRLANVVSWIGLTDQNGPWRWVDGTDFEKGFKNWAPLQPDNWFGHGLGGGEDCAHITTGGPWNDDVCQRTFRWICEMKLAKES
Experimental: A sugar conjugate microarray containing 98 sugar conjugates (Table 3) was prepared according to a known method using a non-contact microarray printing robot (MicroSys 4000; Genomic Solutions).

[3] = test system: human IgG1; assay: Glycan microarray probed with human IgG1 (control of Table 7); type: binding
[4] = test system: lectins (96 lectins of Table 2); assay: Lectin microarray analysis of Clec10a ligand in HDM (Table 6); type: binding; details: for Signal value, Target: Target: Pull-down assay sample from HDM using Clec10a-Fc (Clec10a ligand), signal at each lectin spot of the lectin microarray
Experimental: Lectin microarrays were made using a non-contact microarray printing robot (MicroSys4000; Genomic Solutions) according to the previous method. Samples were fluorescently labeled with Cy3 Mono-Reactive dye (Ge) and excess Cy3 was removed using a Sephadex g-25 desalting column (Ge). After 10 fold dilution with a probe solution (25 mM Tris-HCl, pH 7.5, 140 mM NaCl) (TBS) containing 2.7 mM KCl, 1 mM CaCl2, 1 mM MnCl2, and 1% Triton X-100, a Cy3-labeled sample was applied to a lectin microarray and incubated at 20° C. overnight. The sample was washed with a probe solution, and a fluorescence image was obtained using an evanescent-field activated fluorescence scanner (Bio-Rad scan 200, Rexxam Co. Ltd.). Lectin signals in triplicate spots were averaged for each protein sample and normalized to an average value of 96 lectins.

Molecule | GFP expression in mouse Clec10a reporter cells [1] | Signal value, Clec10a-Fc [2] | Signal value, Clec10a-Fc with EDTA [2] | Signal value, human IgG1 [3] | Binding to lectins in lectin microarray ([4]; Cy3-labeled sample) | Signal value, Target [4] | Binding of Clec10a-Fc in glycan microarray ([2]; Clec10a-Fc 10 μg/mL)
CC(=O)N[C@@H]1[C@@H](O[C@@H]2O[C@@H](C)[C@@H](O)[C@@H](O)[C@@H]2O)[C@H](O[C@@H]2O[C@H](CO)[C@H](O)[C@H](O)[C@H]2O)[C@@H](CO)O[C@H]1O [Lewis X, reference compound] | expressed GFP |  |  |  |  |  | 
CC(=O)N[C@H]1[C@H]([C@H](O)[C@H](O)CO)O[C@@](O[C@H](CO)[C@@H](O)[C@@H]2O[C@@](O)(C(=O)O)C[C@H](O)[C@H]2NC(C)=O)(C(=O)O)C[C@@H]1O [Siα2] |  | 0 | 0 | 0 |  |  | 
CC(=O)N[C@@H]1[C@@H](O[C@@H]2O[C@H](CO)[C@H](O)[C@H](O)[C@H]2O)[C@@H](O)[C@@H](CO)O[C@@H]1O [T (Core1)] |  | 2504 | 0 | 0 |  |  | 
O=S(=O)(O)O[C@@H]1[C@@H](O)[C@H](O)O[C@H](CO)[C@@H]1O [[3S] βGal] |  | 3 | 0 | 0 |  |  | 
CC(=O)N[C@@H]1[C@@H](O[C@@H]2O[C@H](CO)[C@H](O)[C@H](OS(=O)(=O)O)[C@H]2O)[C@H](O[C@@H]2O[C@@H](C)[C@@H](O)[C@@H](O)[C@@H]2O)[C@@H](CO)O[C@H]1O [[3S]Lea] |  | 0 | 0 | 0 |  |  | 
CC(=O)N[C@@H]1[C@@H](O)[C@H](O[C@@H]2O[C@H](CO)[C@H](O)[C@H](O[C@]3(C(=O)O)C[C@H](O)[C@@H](NC(C)=O)[C@H]([C@H](O)[C@H](O)CO)O3)[C@H]2O)[C@@H](CO)O[C@H]1O [[3′S]LN] |  | 0 | 0 | 0 |  |  | 
CC(=O)N[C@@H]1[C@@H](O[C@@H]2O[C@H](CO)[C@H](O)[C@H](OS(=O)(=O)O)[C@H]2O)[C@H](O)[C@@H](CO)O[C@H]1O [[3′S]Lec] |  | 0 | 0 | 0 |  |  | 
O=P(O)(O)OC[C@H]1O[C@H](O)[C@@H](O)[C@@H](O)[C@@H]1O [[6P]Man] |  | 0 | 0 | 0 |  |  | 
CC(=O)N[C@@H]1[C@@H](O)[C@H](O)[C@@H](COS(=O)(=O)O)O[C@H]1O [[6S]BGlcNAc] |  | 0 | 0 | 318 |  |  | 
CC(=O)N[C@@H]1[C@@H](O)[C@H](O[C@@H]2O[C@H](CO)[C@H](O)[C@H](O)[C@H]2O)[C@@H](COS(=O)(=O)O)O[C@H]1O [[6S]LN] |  | 0 | 0 | 0 |  |  | 
CC(=O)N[C@@H]1[C@@H](O)[C@H](O[C@@H]2O[C@H](COS(=O)(=O)O)[C@H](O)[C@H](O)[C@H]2O)[C@@H](CO)O[C@H]1O [[6′S]LN] |  | 0 | 0 | 0 |  |  | 
CC(=O)N[C@@H]1[C@@H](O[C@@H]2O[C@H](CO)[C@H](O)[C@H](O)[C@H]2NC(C)=O)[C@@H](O)[C@@H](CO)O[C@H]1O [di-GalNAcβ] |  | 65 | 0 | 0 |  |  | 
CC(=O)N[C@@H]1[C@@H](O[C@@H]2O[C@H](CO)[C@H](O)[C@H](O[C@]3(C(=O)O)C[C@H](O)[C@@H](NC(C)=O)[C@H]([C@H](O)[C@H](O)CO)O3)[C@H]2O)[C@H](O[C@@H]2O[C@@H](C)[C@@H](O)[C@@H](O)[C@@H]2O)[C@@H](CO)O[C@H]1O [sLea] |  | 0 | 0 | 0 |  |  | 
CC(=O)N[C@@H]1[C@@H](O[C@@H]2O[C@@H](C)[C@@H](O)[C@@H](O)[C@@H]2O)[C@H](O[C@@H]2O[C@H](CO)[C@H](O)[C@H](O[C@]3(C(=O)O)C[C@H](O)[C@@H](NC(C)=O)[C@H]([C@H](O)[C@H](O)CO)O3)[C@H]2O)[C@@H](CO)O[C@H]1O [sLex] |  | 1 | 0 | 0 |  |  | 
OC[C@H]1O[C@H](O)[C@@H](O)[C@@H](O)[C@@H]1O [αMan] |  | 0 | 0 | 0 |  |  | 
CC(=O)N[C@@H]1[C@@H](O)[C@@H](O)[C@@H](CO)O[C@H]1O [βGalNAc] |  | 6 | 0 | 0 |  |  | 
OC[C@H]1O[C@@H](O)[C@H](O)[C@@H](O)[C@H]1O [βGal] |  | 1867 | 0 | 0 |  |  | 
OC[C@H]1O[C@@H](O)[C@@H](O)[C@@H](O)[C@@H]1O [βMan] |  | 0 | 0 | 0 |  |  | 
Chitobiose |  | 0 | 0 | 0 |  |  | 
Clec10a |  |  |  |  | most strongly bound to the lectins of Maclura pomifera (MPA) |  | 
Galβ 1-3(Fucα 1-4)GlcNAcβ 1-PAA [LeA] | activated Clec10a in a dose-dependent manner | 5532 | 0 | 0 |  |  | 
Galβ.1-4(Fucα 1-3)GlcNAcβ 1-PAA [LeX] | activated Clec10a in a dose-dependent manner | 2535 | 0 | 0 |  |  | 
PHAL |  | 0 | 0 | 0 |  | 0 | 
rGal7 |  | 0 | 0 | 0 |  | 0 | 
rMalectin |  | 0 | 0 | 0 |  | 0 | 
αGalNAc [Tn antigen] |  | 682 | 0 | 0 |  |  | binds
rPAIL (protein, UniProt Q05097 2-122, looked up) PA-I galactophilic lectin: AWKGEVLANNEAGQVTSIIYNPGDVITIVAAGWASYGPTQKWGPQGDREHPDQGLICHDAFCGALVMKIGNSGTIPVNTGLFRWVAPNNVQGAITLIYNDVPGTYGNNSGSFSVNIGKDQS |  | 0 | 0 | 0 |  | 0 | 
PNA (protein, UniProt P02872 24-273, looked up) Galactose-binding lectin: AETVSFNFNSFSEGNPAINFQGDVTVLSNGNIQLTNLNKVNSVGRVLYAMPVRIWSSATGNVASFLTSFSFEMKDIKDYDPADGIIFFIAPEDTQIPAGSIGGGTLGVSDTKGAGHFVGVEFDTYSNSEYNDPPTDHVGIDVNSVDSVKTVPWNSVSGAVVKVTVIYDSSTKTLSVAVTNDNGDITTIAQVVDLKAKLPERVKFGFSASGSLGGRQIHLIRSWSFTSTLITTTRRSIDNNEKKIMNMASA |  |  |  |  |  | 10699 | 
AAL (protein, UniProt P18891 2-313, looked up) Fucose-specific lectin: PTEFLYTSKIAAISWAATGGRQQRVYFQDLNGKIREAQRGGDNPWTGGSSQNVIGEAKLFSPLAAVTWKSAQGIQIRVYCVNKDNILSEFVYDGSKWITGQLGSVGVKVGSNSKLAALQWGGSESAPPNIRVYYQKSNGSGSSIHEYVWSGKWTAGASFGSTVPGTGIGATAIGPGRLRIYYQATDNKIREHCWDSNSWYVGGFSASASAGVSIAAISWGSTPNIRVYWQKGREELYEAAYGGSWNTPGQIKDASRPTPSLPDTFIAANSSGNIDISVFFQASGVSLQQWQWISGKGWSIGAVVPTGTPAGW |  |  |  |  |  | 7508 | 
